US12171752B2, “Methods of treating post-COVID condition(s)” (priority 2022, dated 2024)

Legend:
TNFα = assay: Spike protein-mediated TNFα release from human monocyte-derived microglia (iMDM); format: cell-based; details: for Dose dependence of TNFα reduction: ibudilast 1, 10 or 100 μM
PDE 11A1 = PDE 11A1 (Homo sapiens, UniProt Q9HCR9); details: Gibson et al., Eur J Pharmacol 2006; cited from earlier work
[1] = Sanftner et al., Xenobiotica 2009; cited from earlier work
IL-6 = assay: Spike protein-mediated IL-6 release from human monocyte-derived microglia (iMDM); format: cell-based
[2] = target: T1, macrophage inhibitory factor (MIF) (Homo sapiens, UniProt P14174); details: Cho et al., PNAS-USA 2010; cited from earlier work
T1 sequence (P14174 2-115 limits assumed): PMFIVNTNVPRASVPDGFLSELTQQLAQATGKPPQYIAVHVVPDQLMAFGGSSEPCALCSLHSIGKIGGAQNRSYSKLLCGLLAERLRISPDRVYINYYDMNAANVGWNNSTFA

PDE 10A1 = PDE 10A1 (Homo sapiens, UniProt Q9Y233); details: Gibson et al., Eur J Pharmacol 2006; cited from earlier work
PDE 10A1, sequence (Q9Y233 1-779 isoform Q9Y233-1): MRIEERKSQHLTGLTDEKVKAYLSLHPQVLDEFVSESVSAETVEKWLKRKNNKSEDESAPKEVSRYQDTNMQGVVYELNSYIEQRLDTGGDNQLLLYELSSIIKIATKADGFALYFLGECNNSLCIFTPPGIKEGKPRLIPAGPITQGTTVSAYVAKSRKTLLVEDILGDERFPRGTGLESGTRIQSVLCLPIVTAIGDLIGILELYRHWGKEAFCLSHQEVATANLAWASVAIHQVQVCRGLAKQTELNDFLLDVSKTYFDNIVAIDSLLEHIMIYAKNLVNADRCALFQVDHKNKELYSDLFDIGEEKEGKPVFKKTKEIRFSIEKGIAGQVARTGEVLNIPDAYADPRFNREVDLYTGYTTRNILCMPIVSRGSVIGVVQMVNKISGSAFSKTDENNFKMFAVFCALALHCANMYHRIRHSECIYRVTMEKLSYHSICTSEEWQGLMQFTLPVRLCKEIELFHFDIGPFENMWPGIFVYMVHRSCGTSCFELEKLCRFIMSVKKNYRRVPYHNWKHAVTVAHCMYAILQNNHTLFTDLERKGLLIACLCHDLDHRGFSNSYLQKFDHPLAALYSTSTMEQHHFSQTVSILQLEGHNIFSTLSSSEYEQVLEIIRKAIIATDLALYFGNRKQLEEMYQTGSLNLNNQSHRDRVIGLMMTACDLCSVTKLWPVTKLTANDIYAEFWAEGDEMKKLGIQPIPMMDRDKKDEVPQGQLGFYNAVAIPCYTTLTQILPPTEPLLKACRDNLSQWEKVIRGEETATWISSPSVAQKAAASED

MIF = assay: Plasma level of MIF; details: found by the inventors
PAF = details: reported; cited from earlier work
PDE 4 = details: Gibson et al., Eur J Pharmacol 2006; cited from earlier work
PDE 3A = PDE 3A (Homo sapiens, UniProt Q14432); details: Gibson et al., Eur J Pharmacol 2006; cited from earlier work
PDE 3A, sequence (Q14432 whole entry): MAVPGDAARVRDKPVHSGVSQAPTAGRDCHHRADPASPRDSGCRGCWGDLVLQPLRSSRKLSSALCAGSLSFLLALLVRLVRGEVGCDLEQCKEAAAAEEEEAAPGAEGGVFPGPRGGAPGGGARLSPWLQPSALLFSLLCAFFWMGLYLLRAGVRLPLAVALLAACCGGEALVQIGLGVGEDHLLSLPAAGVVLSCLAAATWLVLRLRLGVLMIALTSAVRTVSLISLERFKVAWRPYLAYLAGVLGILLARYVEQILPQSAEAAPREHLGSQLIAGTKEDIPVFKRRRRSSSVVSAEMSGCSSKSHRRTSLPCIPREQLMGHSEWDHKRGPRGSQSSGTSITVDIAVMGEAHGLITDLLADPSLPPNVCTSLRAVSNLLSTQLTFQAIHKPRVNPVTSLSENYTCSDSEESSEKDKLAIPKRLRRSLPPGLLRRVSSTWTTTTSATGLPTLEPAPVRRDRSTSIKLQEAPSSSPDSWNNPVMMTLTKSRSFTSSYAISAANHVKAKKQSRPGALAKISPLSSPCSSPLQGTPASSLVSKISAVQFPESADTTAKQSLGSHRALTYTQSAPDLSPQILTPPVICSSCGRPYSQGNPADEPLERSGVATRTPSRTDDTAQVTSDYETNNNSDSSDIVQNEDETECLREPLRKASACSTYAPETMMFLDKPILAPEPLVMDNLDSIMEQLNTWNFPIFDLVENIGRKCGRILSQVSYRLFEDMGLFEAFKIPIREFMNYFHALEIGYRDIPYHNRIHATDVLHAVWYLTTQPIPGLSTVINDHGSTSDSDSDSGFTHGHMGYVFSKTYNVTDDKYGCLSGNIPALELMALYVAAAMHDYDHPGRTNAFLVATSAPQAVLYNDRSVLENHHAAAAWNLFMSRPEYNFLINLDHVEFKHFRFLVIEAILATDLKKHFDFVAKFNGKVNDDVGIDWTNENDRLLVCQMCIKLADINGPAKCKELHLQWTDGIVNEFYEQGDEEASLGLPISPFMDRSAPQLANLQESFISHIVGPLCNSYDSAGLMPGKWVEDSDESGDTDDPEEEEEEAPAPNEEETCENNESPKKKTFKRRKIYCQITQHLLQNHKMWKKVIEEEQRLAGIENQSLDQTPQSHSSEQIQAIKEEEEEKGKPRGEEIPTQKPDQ

leukotriene D4 = details: reported; cited from earlier work
[3] = target: toll-like receptor-4 (TLR4) (Homo sapiens, UniProt O00206); details: Yang et al., Cell Death and Disease 2016; cited from earlier work
toll-like receptor-4 (TLR4), sequence (O00206 24-839, species assumed): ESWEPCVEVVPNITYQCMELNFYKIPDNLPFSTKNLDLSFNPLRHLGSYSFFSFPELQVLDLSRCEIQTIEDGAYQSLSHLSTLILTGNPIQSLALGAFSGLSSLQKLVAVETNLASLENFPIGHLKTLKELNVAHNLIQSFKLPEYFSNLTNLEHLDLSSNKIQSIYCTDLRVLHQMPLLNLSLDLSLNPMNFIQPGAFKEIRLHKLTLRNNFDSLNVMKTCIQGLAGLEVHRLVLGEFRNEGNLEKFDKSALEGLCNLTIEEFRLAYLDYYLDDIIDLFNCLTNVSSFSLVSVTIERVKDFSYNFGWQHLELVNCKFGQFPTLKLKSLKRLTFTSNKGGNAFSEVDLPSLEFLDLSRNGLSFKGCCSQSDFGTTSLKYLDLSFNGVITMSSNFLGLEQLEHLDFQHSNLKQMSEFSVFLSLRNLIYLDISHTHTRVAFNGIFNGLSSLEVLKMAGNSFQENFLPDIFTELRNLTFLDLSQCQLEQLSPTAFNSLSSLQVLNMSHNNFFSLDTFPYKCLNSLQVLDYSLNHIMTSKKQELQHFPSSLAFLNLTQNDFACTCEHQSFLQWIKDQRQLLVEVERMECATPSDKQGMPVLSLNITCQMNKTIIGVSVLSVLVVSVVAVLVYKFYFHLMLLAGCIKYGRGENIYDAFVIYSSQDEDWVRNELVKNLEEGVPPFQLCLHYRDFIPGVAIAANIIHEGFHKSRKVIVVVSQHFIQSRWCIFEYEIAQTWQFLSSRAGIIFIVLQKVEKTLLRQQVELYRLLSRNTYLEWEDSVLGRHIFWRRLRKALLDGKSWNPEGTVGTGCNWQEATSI

PDE 11A1, sequence (Q9HCR9 445-933): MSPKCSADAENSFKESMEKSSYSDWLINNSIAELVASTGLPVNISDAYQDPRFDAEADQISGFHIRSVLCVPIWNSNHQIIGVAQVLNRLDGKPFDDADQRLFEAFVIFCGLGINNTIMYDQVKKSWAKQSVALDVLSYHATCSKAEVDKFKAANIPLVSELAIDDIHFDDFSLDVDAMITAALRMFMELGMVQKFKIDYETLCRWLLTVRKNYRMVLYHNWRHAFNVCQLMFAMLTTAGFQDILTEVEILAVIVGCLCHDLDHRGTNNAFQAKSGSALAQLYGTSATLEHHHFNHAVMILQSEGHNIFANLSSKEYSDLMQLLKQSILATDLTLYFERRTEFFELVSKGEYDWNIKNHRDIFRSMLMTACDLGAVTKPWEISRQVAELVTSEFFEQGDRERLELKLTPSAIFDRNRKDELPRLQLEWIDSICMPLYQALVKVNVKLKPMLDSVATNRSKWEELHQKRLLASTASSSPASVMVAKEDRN

In the case of `CC(C)C(=O)c1c(C(C)C)nn2ccccc12` [Ibudilast, 2-methyl-1-(2-(1-methylethyl)pyrazolo (1,5-a)pyridin-3-yl) 1-propanone], the “Dose dependence of TNFα reduction” value (TNFα; "Omicron" spike protein (1.0 μg/ml) with cross-linker, all 3 donors) is reported as “Dose-dependent curves are observed”, the “Dose dependence of TNFα reduction” value (TNFα; "Omicron" spike protein (5.0 μg/ml) with cross-linker, donor 3) is reported as “Dose-dependent curves are observed” and the “TNFα levels elevated by "Omicron" spike protein” value (TNFα; "Omicron" spike protein, under certain test conditions, FIGS. 6-8) is reported as “reduction by ibudilast was evident under certain test conditions”. For the same compound, the “(LPS+spike protein)-evoked levels of TNFα” value (TNFα; all donors, FIGS. 1-3) was “reduced”, the TNFα levels (TNFα; iMDM, […], ibudilast 1.0, 10, 100 μM) was “reduce” and the “PDE 11A1 inhibition” value (PDE 11A1) was “selective inhibitor”. The CNS penetration [1] was “good CNS penetration”, the “(LPS+spike protein)-evoked levels of IL-6” value (IL-6; donors 2 and 3, FIGS. 4-5) was “reduced” and the IL-6 levels (IL-6; iMDM, "low" concentration (10 ng/mL) of LPS added with the spike proteins (all variants), ibudilast 1.0, 10, 100 μM) was “reduce”. For the same compound, the “HPP tautomerase activity of MIF” value [2] was “allosteric inhibitor”, the “PDE 10A1 inhibition” value (PDE 10A1) was “selective inhibitor” and the “plasma level of MIF” value (MIF) was “lowers plasma level of MIF”. For the same compound, the PAF antagonistic activity (PAF) was “antagonistic activities”, the “PDE 4 inhibition” value (PDE 4) was “selective inhibitor” and the “PDE 3A inhibition” value (PDE 3A) was “selective inhibitor”. The “leukotriene D4 antagonistic activity” value (leukotriene D4) was “antagonistic activities” and the TLR4 antagonistic activity [3] was “antagonistic activity”.
